Measurements as given in US20230174584A1, “Antibiotic Compounds” (priority 2019, published 2023).
Values after ≈ are worked out from the molar mass of the structure shown.

Legend:
[1] = test system: Klebsiella pneumoniae JS265; test: MIC assay; assay type: cell-based
Procedure: (§1) The antibacterial activity of the compounds was tested against a panel of bacteria, including Gram-positive bacteria (S. aureus ATCC29213, S. aureus USA300, S. aureus LIM-2, NR-45881, S. aureus HIP13419, NR-46413, E. faecium E155, E. faecium E7314, E. faecium E980, E. faecalis E1246, E. faecalis E7406 and S. pneumonia 153). The antibacterial activity of the compounds was further tested against S. aureus NY-155, NR-46236, S. aureus HIP12864, NR-46074, S. aureus 880 (BR-VRSA), NR-49120, E. faecalis E1246, E. faecalis E7604, as well as some Gram-negative bacteria (Escherichia coli and Klebsiella pneumoniae). Minimum inhibitory concentrations (MICs) in μg/mL were performed according to the CLSI guidelines. From glycerol stocks, bacterial strains were cultured on blood agar plates and incubated at 37° C. for 18 h. A single colony was transferred to tryptic soy broth (TSB) with 0.002% polysorbate 80 (p80). For the Enterococcus, VISA and VRSA strains, the cultures were grown at 37° C. until the optical density of the suspension reached a level equivalent to the 0.5 McFarland standard. The bacterial suspensions were diluted in TSB with 0.002% p80 to reach a bacterial cell density of 10^6 CFU/mL. In case of the other (vancomycin-sensitive) S. aureus strains, the direct colony suspension method was used. For these strains, after transfer of the colonies to TSB with 0.002% p80, they were immediately diluted to 10^6 CFU/mL, instead of incubated prior to this dilution. In the case of S. pneumonia, direct colony suspension was used by immediately suspending multiple colonies from fresh blood agar plates in TSB+0.002% p80 to an OD600 of 0.5 and subsequent dilution to 10^6 CFU mL^−1 in TSB+0.002% p80+5% lysed horse blood. Antibiotic dilutions for this strains were also made in TSB+0.002% p80+5% lysed horse blood. Both agar and microplates containing S. pneumonia were incubated at 37° C. with 5% CO2 for 24 h with constant shaking (600 rpm). […] The cultures were grown to exponential phase (OD600=0.5) at 37° C. […] In polypropylene 96-well microtiter plates, test compounds were added in biological triplicates and serial diluted 2-fold by transfer and mixing from one well to the next to achieve a final volume of 50 μL per well. An equal volume of bacterial suspension (10^6 CFU mL^−1) was added to the wells. The plates were sealed with breathable membranes and incubated at 37° C. for 24 h with constant shaking (600 rpm). In polypropylene microtiter plates, 100 μL of the test compounds was added to the first row in biological triplicates, and 50 μL of media was added to the other wells. The compounds were subjected to serial dilution by transfer and mixing of 50 μL from one well to the next. Subsequently, 50 μL of bacterial suspension (10^6 CFU/mL) was added to the wells. The plates were sealed with breathable membranes and incubated at 37° C. for 24 h with constant shaking (600 rpm). Positive growth control consisted of wells with bacterial suspension and without antibiotic. Negative growth control consisted of solely media without bacterial suspension or antibiotic. The MICs were determined from the median of a minimum of triplicates.

[2] = test system: Escherichia coli ATCC 25922; test: MIC assay; assay type: cell-based
Procedure: as §1

[3] = test system: Escherichia coli ATCC 35218; test: MIC assay; assay type: cell-based
Procedure: as §1

Escherichia coli W3110 = test: MIC assay; assay type: cell-based
Procedure: as §1

[4] = test system: Klebsiella pneumoniae ATCC 13883; test: MIC assay; assay type: cell-based
Procedure: as §1

[5] = test system: Klebsiella pneumoniae ATCC 27736; test: MIC assay; assay type: cell-based
Procedure: as §1

S. pneumoniae 153 = test: MIC assay; assay type: cell-based
Procedure: as §1

[6] = test system: S. aureus HIP13419, NR-46413; test: microbe, parasite or virus in culture; assay type: cell-based, Staphylococcus aureus
Procedure: as §1

S. aureus USA300 = test: microbe, parasite or virus in culture; assay type: cell-based, Staphylococcus aureus
Procedure: as §1

E. faecalis E7604 = test: microbe, parasite or virus in culture; assay type: cell-based, Enterococcus faecalis
Procedure: as §1

E. faecalis E7406 = test: microbe, parasite or virus in culture; assay type: cell-based, Enterococcus faecalis
Procedure: as §1

E. faecalis E1246 = test: MIC assay; assay type: cell-based, Enterococcus faecalis
Procedure: as §1

E. faecium E1441 = test: MIC assay; assay type: cell-based, Enterococcus faecium; details: E. faecium E1441, VanA
E. faecium E2359 = test: MIC assay; assay type: cell-based, Enterococcus faecium; details: E. faecium E2359, VanB
E. faecium E1763 = test: MIC assay; assay type: cell-based, Enterococcus faecium; details: E. faecium E1763, VanA
Summary of the method: (§2)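 Read-out: lowest concentration inhibiting growth, reported as the median MIC (μg/mL) over ≥ triplicates. Set-up: CLSI method, TSB with 0.002% polysorbate 80, 10^6 CFU/mL inoculum added in equal volume to 2-fold dilutions, 37 °C for 24 h with 600 rpm agitation.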

E. faecium E0300 = test: MIC assay; assay type: cell-based, Enterococcus faecium; details: E. faecium E0300, VanA
Summary of the method: as §2

E. faecium E7401 = test: MIC assay; assay type: cell-based, Enterococcus faecium; details: E. faecium E7401, VanB
Summary of the method: as §2

E. faecium E0072 = test: MIC assay; assay type: cell-based, Enterococcus faecium; details: E. faecium E0072, VanA
Summary of the method: as §2

E. faecium E0506 = test: MIC assay; assay type: cell-based, Enterococcus faecium; details: E. faecium E0506, VanA
Summary of the method: as §2

E. faecium E8218 = test: MIC assay; assay type: cell-based, Enterococcus faecium; details: E. faecium E8218, VanB
Summary of the method: as §2

E. faecium E8235 = test: MIC assay; assay type: cell-based, Enterococcus faecium; details: E. faecium E8235, VanB
Summary of the method: as §2

[7] = S. pneumoniae 153, TSB+0.002% p80+5% lysed horse blood
[8] = S. aureus HIP13419, NR-46413 VRSA
[9] = E. faecalis E1246 VRE (VanA), Table 7
[10] = E. faecalis E1246 VRE (vanA), Table 9

Structure (SMILES)	MIC [1] [mg/L]	MIC [2] [mg/L]	MIC [3] [mg/L]	MIC (Escherichia coli W3110) [mg/L]	MIC [4] [mg/L]	MIC [5] [mg/L]	MIC (S. pneumoniae 153; [7]) [mg/L]	MIC [6, 8] [mg/L]	MIC (S. aureus USA300; MRSA USA300, TSB + 0.002% p80) [mg/L]	MIC (S. aureus USA300; S. aureus USA300 MRSA) [mg/L]	MIC (E. faecalis E7604; E. faecalis E7604 VRE (vanB)) [mg/L]	MIC (E. faecalis E7406; E. faecalis E7406 VRE (VanB)) [mg/L]	MIC (E. faecalis E1246; [9]) [mg/L]	MIC (E. faecalis E1246; [10]) [mg/L]	MIC (E. faecium E1441) [mg/L]	MIC (E. faecium E2359) [mg/L]	MIC (E. faecium E1763) [mg/L]	MIC (E. faecium E0300) [mg/L]	MIC (E. faecium E7401) [mg/L]	MIC (E. faecium E0072) [mg/L]	other results
CCCCCCCCCNC(N)=Nc1ccc(CN[C@@]2(C)C[C@H](O[C@H]3[C@H](Oc4c5cc6cc4Oc4ccc(cc4Cl)[C@@H](O)[C@@H](NC(=O)[C@@H](CC(C)C)NC)C(=O)N[C@@H](CC(N)=O)C(=O)N[C@H]6C(=O)N[C@H]4C(=O)N[C@H](C(=O)N[C@H](C(=O)O)c6cc(O)cc(O)c6-c6cc4ccc6O)[C@H](O)c4ccc(c(Cl)c4)O5)O[C@H](CO)[C@@H](O)[C@@H]3O)O[C@@H](C)[C@H]2O)cc1 [Compound 7]	>128	>128	>128	>128	>128	>128	≤0.008	0.125 (≈ 0.0726 µM)	≤0.008	≤0.007812	≤0.008	≤0.007812	2 (≈ 1.16 µM)	2 (≈ 1.16 µM)	1 (≈ 0.58 µM)	≤0.008	≤0.008	0.5 (≈ 0.29 µM)	≤0.008	0.125 (≈ 0.0726 µM)	MIC (E. faecium E0506): 0.5 mg/L (≈ 0.29 µM); MIC (E. faecium E8218): ≤0.008 mg/L; MIC (E. faecium E8235): ≤0.008 mg/L
CCCCCCN(CCCCCC)C(N)=Nc1ccc(CN[C@@]2(C)C[C@H](O[C@H]3[C@H](Oc4c5cc6cc4Oc4ccc(cc4Cl)[C@@H](O)[C@@H](NC(=O)[C@@H](CC(C)C)NC)C(=O)N[C@@H](CC(N)=O)C(=O)N[C@H]6C(=O)N[C@H]4C(=O)N[C@H](C(=O)N[C@H](C(=O)O)c6cc(O)cc(O)c6-c6cc4ccc6O)[C@H](O)c4ccc(c(Cl)c4)O5)O[C@H](CO)[C@@H](O)[C@@H]3O)O[C@@H](C)[C@H]2O)cc1 [Compound 12]	>128	>128	>128	>128	>128	>128	≤0.008	0.25 (≈ 0.142 µM)	0.063	0.0625 (≈ 0.0354 µM)	≤0.008	≤0.007812	8 (≈ 4.53 µM)	8 (≈ 4.53 µM)	2 (≈ 1.13 µM)	≤0.008	0.031 (≈ 0.0176 µM)	1 (≈ 0.567 µM)	≤0.008	0.25 (≈ 0.142 µM)	MIC (E. faecium E0506): 1 mg/L (≈ 0.567 µM); MIC (E. faecium E8218): ≤0.008 mg/L; MIC (E. faecium E8235): ≤0.008 mg/L
CN[C@H](CC(C)C)C(=O)N[C@H]1C(=O)N[C@@H](CC(N)=O)C(=O)N[C@H]2C(=O)N[C@H]3C(=O)N[C@H](C(=O)N[C@H](C(=O)O)c4cc(O)cc(O)c4-c4cc3ccc4O)[C@H](O[C@H]3C[C@](C)(N)[C@@H](O)[C@H](C)O3)c3ccc(c(Cl)c3)Oc3cc2cc(c3O[C@@H]2O[C@H](CO)[C@@H](O)[C@H](O)[C@H]2O[C@H]2C[C@](C)(NCc3ccc(-c4ccc(Cl)cc4)cc3)[C@@H](O)[C@H](C)O2)Oc2ccc(cc2Cl)[C@H]1O [Oritavancin]	–	–	–	–	–	–	–	–	–	–	–	–	–	1 (≈ 0.558 µM)	–	–	–	–	–	–	MIC (S. pneumoniae 153; Streptococcus pneumoniae, 153): ≤ 0.008 mg/L; MIC ([6]; Staphylococcus aureus, VRSA): 0.25 mg/L (≈ 0.139 µM); MIC (S. aureus USA300; Staphylococcus aureus, MRSA / USA300): 0.0625 mg/L (≈ 0.0349 µM); MIC (E. faecalis E7604; Enterococcus faecalis, VRE): 0.063 mg/L (≈ 0.0351 µM); MIC (E. faecalis E7406; Enterococcus faecalis, VRE): 0.0625 mg/L (≈ 0.0349 µM); MIC (E. faecalis E1246; Enterococcus faecalis, VRE): 1 mg/L (≈ 0.558 µM)
